Measured values reported in US20110313034A1, “NEUROACTIVE PLANT EXTRACT FROM HYPERICUM POLYANTHEMUM” (UNIVERSIDADE FEDERAL DO RIO GRANDE DO SUL, priority 2009, published 2011).
Each block holds one molecule with its values, some of them ahead of it.

What was measured:
[1] = tested on: corticosterone; assay: serum and cortical corticosterone in mice subjected to forced swimming (radioimmunoassay); assay type: in vivo; details: three days of treatment, POL 360 mg/kg p.o., imipramine 20 mg/kg, bupropion 30 mg/kg; for serum levels of corticosterone: forced swimming
Protocol: Data are presented as mean±SEM. *p<0.01 compared to respective group without swimming; #p<0.01 compared to SAL with swimming. Legend: (A) X axis—corticosterone levels (μg/100 mL plasma); Blank values: no swimming; values hatch: with swim, (B) X axis—cortical Corticosterone (pg/100 mg tissue).
We evaluated the action of POL (360 mg/kg, p.o.) on serum and cortical levels of corticosterone in mice subjected or not to stress caused by forced swimming. The concentration of corticosterone present in the samples was measured by radioimmunoassay.

[2] = target: T1, monoamine oxidase A (Rattus norvegicus, UniProt P21396); details: mitochondria from rat brain; cited from earlier work
T1 construct: in preparations of mitochondria from rat brain; from tissue; host or cells: rat brain mitochondria
T1 sequence (P21396 1-526): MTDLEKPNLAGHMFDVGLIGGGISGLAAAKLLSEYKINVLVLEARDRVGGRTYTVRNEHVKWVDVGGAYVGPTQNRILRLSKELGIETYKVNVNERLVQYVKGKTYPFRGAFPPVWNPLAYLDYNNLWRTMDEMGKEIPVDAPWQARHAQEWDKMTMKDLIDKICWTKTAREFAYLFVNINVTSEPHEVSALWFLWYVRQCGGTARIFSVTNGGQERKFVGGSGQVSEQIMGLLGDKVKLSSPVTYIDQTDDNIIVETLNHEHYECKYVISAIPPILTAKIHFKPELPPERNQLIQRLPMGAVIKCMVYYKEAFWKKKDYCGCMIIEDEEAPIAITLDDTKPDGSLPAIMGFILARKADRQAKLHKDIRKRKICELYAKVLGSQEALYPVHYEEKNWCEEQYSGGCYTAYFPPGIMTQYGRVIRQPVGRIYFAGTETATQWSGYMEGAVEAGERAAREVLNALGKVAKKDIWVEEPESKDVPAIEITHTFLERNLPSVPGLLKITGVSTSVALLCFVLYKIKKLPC

[3] = tested on: synatosomal reuptake of glutamate; details: in vitro; cited from earlier work
[4] = target: T2, synaptosomal reuptake of serotonin ([3H]-5HT) (Rattus norvegicus, UniProt P31652); details: in vitro; cited from earlier work
T2 sequence (P31652 whole entry): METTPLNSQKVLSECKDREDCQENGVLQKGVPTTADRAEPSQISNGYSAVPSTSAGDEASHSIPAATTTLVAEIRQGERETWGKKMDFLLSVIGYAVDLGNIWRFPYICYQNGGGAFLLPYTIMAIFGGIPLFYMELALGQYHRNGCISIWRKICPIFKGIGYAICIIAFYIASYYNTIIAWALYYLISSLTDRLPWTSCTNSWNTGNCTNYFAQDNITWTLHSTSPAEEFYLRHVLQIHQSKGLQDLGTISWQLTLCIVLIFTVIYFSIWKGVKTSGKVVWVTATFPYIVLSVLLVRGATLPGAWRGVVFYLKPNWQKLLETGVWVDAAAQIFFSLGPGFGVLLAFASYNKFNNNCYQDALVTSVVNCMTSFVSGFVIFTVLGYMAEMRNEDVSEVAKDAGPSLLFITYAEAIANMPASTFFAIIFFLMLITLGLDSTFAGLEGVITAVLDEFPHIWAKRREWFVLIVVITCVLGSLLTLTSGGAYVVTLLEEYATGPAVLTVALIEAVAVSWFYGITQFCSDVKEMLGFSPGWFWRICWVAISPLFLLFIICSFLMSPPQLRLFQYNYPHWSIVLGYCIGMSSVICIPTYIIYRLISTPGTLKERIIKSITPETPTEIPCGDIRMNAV

[5] = target: T3, synaptosomal reuptake of noradrenaline ([3H]-NA) (Rattus norvegicus, UniProt Q9WTR4); details: in vitro; cited from earlier work
T3 sequence (Q9WTR4 1-597): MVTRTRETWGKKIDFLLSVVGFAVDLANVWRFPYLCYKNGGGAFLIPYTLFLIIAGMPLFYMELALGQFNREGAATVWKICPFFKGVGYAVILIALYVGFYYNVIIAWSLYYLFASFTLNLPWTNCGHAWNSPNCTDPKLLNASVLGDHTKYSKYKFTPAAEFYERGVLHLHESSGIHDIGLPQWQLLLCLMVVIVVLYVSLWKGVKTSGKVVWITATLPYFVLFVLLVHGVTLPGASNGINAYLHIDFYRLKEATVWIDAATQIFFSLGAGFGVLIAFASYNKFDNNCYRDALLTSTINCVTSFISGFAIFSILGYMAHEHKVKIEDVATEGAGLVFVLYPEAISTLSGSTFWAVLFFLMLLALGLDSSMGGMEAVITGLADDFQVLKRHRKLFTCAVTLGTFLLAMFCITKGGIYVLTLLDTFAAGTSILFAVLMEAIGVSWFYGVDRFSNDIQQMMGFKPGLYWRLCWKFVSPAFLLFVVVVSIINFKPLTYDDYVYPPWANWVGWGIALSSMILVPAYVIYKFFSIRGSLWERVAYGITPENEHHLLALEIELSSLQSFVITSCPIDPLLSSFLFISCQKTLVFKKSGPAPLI

[6] = target: T4, synaptosomal reuptake of dopamine ([3H]-DA) (Rattus norvegicus, UniProt P23977); details: in vitro; cited from earlier work
T4 sequence (P23977 whole entry): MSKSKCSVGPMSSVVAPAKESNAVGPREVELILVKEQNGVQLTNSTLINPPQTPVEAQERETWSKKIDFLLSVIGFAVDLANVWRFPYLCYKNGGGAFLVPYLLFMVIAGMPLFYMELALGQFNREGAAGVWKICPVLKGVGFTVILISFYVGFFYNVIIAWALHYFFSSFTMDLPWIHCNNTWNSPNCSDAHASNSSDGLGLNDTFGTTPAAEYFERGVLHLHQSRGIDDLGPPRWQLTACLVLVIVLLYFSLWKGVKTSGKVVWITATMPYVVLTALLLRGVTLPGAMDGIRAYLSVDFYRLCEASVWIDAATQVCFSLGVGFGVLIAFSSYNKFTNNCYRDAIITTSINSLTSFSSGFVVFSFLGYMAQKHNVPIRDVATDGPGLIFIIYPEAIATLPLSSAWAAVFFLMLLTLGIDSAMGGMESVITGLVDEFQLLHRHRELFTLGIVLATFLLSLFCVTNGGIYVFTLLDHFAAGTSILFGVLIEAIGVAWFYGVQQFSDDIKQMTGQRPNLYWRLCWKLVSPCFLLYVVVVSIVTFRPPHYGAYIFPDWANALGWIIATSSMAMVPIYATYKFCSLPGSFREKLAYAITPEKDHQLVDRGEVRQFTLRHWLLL

[7] = tested on: synatosomal reuptake of GABA; details: in vitro; cited from earlier work
[8] = target: T2, synaptosomal reuptake of serotonin ([3H]-5HT); assay: synaptosomal reuptake of serotonin ([3H]-5HT), frontal cortex synaptosomes; assay type: biochemical; parameters: in synaptosomes prepared from striatum, hypothalamus and frontal cortex, respectively; from tissue; host or cells: frontal cortex (synaptosomes; membranes); details: synaptosomes from frontal cortex; HP4 3×10^−4-3×10^−11 g/mL; read-out: IC50, synaptosomal uptake of 5-HT
Source text: (§1) The effect of HP4 (3×10^−4-3×10^−11 g/mL) on synaptosomal reuptake of dopamine ([^3H]-DA), noradrenaline ([^3H]-NA) and serotonin ([^3H]-5HT) in synaptosomes prepared from striatum, hypothalamus and frontal cortex, respectively. […] This profile differs from other antidepressants, which inhibit the reuptake of monoamines through competition for binding site on the transporter.

[9] = target: T3, synaptosomal reuptake of noradrenaline ([3H]-NA); assay: synaptosomal reuptake of noradrenaline ([3H]-NA), hypothalamus synaptosomes; assay type: biochemical; parameters: in synaptosomes prepared from striatum, hypothalamus and frontal cortex, respectively; from tissue; host or cells: hypothalamus (synaptosomes; membranes); details: synaptosomes from hypothalamus; HP4 3×10^−4-3×10^−11 g/mL; read-out: IC50, synaptosomal uptake of NA
Source text: as §1

[10] = target: T5, sites of uptake of NA (Rattus norvegicus, UniProt Q9WTR4); assay: binding of [3H]-nisoxetina to sites of uptake of NA, hypothalamus membranes; details: 3×10^−7-3×10^−11 g/mL
T5 construct: in synaptosomes prepared from striatum, hypothalamus and frontal cortex, respectively; from tissue; host or cells: hypothalamus (synaptosomes; membranes)
T5 sequence (Q9WTR4 1-597): as the sequence (Q9WTR4 1-597) above

[11] = target: T4, synaptosomal reuptake of dopamine ([3H]-DA); assay: synaptosomal reuptake of dopamine ([3H]-DA), striatum synaptosomes; assay type: biochemical; parameters: in synaptosomes prepared from striatum, hypothalamus and frontal cortex, respectively; from tissue; host or cells: striatum (synaptosomes; membranes)
Source text: as §1

[12] = target: T6, sites of uptake of 5-HT (Rattus norvegicus, UniProt P31652); assay: binding of [3H]-citalopram to sites of uptake of 5-HT, frontal cortex membranes; details: 3×10^−7-3×10^−11 g/mL
T6 construct: in synaptosomes prepared from striatum, hypothalamus and frontal cortex, respectively; from tissue; host or cells: frontal cortex (synaptosomes; membranes)
T6 sequence (P31652 whole entry): as the sequence (P31652 whole entry) above

[13] = target: T7, sites of uptake of DA (Rattus norvegicus, UniProt P23977); assay: binding of [3H]-mazindol to sites of uptake of DA, striatum membranes; details: 3×10^−7-3×10^−11 g/mL
T7 construct: in synaptosomes prepared from striatum, hypothalamus and frontal cortex, respectively; from tissue; host or cells: striatum (synaptosomes; membranes)
T7 sequence (P23977 whole entry): as the sequence (P23977 whole entry) above

[14] = tested on: G proteins; assay: direct incubation of membranes with HP4, [35S]GTPγS binding; assay type: biochemical, rats
Protocol: To evaluate the effect of POL on DA, NA, 5-HT and opioids receptors, we used the technique of binding of [^35S] GTPγS stimulated by DA, NA, 5-HT and DAMGO in membranes prepared from striatum, hypothalamus, frontal cortex and thalamus of rats, respectively. […] GTPγS stimulated by DA, NA and 5-HT, while 5 days of treatment with 90 mg/kg, decreases this binding. […] This time profile of action coincides with the modern theories that the antidepressant effect is related to neuroadaptation processes.
GTPγS to its site. […] These changes can occur through other regulatory mechanisms or are related to HP4 metabolites produced after administration in vivo of POL. […] GTPγS stimulated by agonists after different treatment regimens with saline and POL.

[15] = tested on: immobility time of mice; assay: Porsolt's forced swimming test (FST) in mice; assay type: in vivo, CF1 mice; details: 90 mg/kg, p.o.
Protocol: The species H. caprifoliatum, H. carinatum, H. connatum, H. myrianthum, H. piriai, H. polyanthemum and H. cordatum, and three isolated benzopyrans of H. polyanthemum (HP1, HP2, and HP3) were tested for inhibitory activity of monoamine oxidase A and B in preparations of mitochondria from rat brain.
Results are expressed as mean±SEM. * Significant difference compared to the SAL group (water+polysorbate 80, 5%, 1 ml/kg, p.o.) # significant difference compared to POL270 (ANOVA F(7,79)=5.9, p<0.001).
Results are expressed as mean±SEM. *Significant difference compared to the SAL group (water+polysorbate 80, 5%, 1 ml/kg, p.o.) (ANOVA, F(2,29)=15.5, p<0.001).
POL was active in rats (270 mg/kg/day, p.o.) and mice (180, 270 and 360 mg/kg, p.o.). The action of POL in the FST was blocked by administration of SCH 23390 (dopamine D1 antagonist) […], i.p., and sulpiride (D2 dopamine antagonist) 50 mg/kg, ip, (FIG. 1). HP4 was active at a dose of 90 mg/kg, p.o. in mice (FIG. 2).

Molecule: CC(NC(C)(C)C)C(=O)c1cccc(Cl)c1 (stereo not shown) [bupropion]
level of cortical corticosterone raised by forced swimming [1]: alters both serum and cortical levels
serum levels of corticosterone [1]: alters both serum and cortical levels

Molecule: COc1cc2c(c(O)c1C(=O)C(C)C)C=CC(C)(C)O2 [HP3, 5-hydroxy-6-isobutyryl-7-methoxy-2,2-dimethyl-benzopyran]
IC50 [2]: 22.2 µM

Molecule: hyperforin
inhibition of synaptosomal reuptake of glutamate [3]: inhibits
inhibition of synaptosomal reuptake of serotonin [4]: inhibit
inhibition of synaptosomal reuptake of norepinephrine [5]: inhibit
inhibition of synaptosomal reuptake of dopamine [6]: inhibit
inhibition of synaptosomal reuptake of GABA [7]: inhibits

Molecule: CN(C)CCCN1c2ccccc2CCc2ccccc21 [imipramine]
level of cortical corticosterone raised by forced swimming [1]: alters both serum and cortical levels
serum levels of corticosterone [1]: alters both serum and cortical levels

IC50 [8]: 0.252 ± 0.013 µM
IC50 [9]: 0.28 ± 0.048 µM
effect on binding of [3H]-nisoxetina to sites of uptake of NA [10]: did not affect the binding
IC50 for dopamine relative to IC50 for NA and 5-HT (reuptake selectivity) ([11]; in vitro synaptosomal reuptake): almost three times smaller
IC50 ([11]; synaptosomes from striatum, HP4 3×10^−4-3×10^−11 g/mL, read-out: IC50, synaptosomal uptake of DA): 0.09 ± 0.038 µM
effect on binding of [3H]-citalopram to sites of uptake of 5-HT [12]: did not affect the binding
effect on binding of [3H]-mazindol to sites of uptake of DA [13]: did not affect the binding
effect on binding of [35S]GTPγS to its site [14]: did not alter the binding
Molecule: CC(C)C(=O)C1=C(O)C(C)(C)C(O)=C(Cc2c(O)c3c(c(C(=O)C(C)C)c2O)OC(C)(C)C=C3)C1=O [HP4, uliginosin B]
activity in forced swimming test [15]: active
